pIC50: −log10 of the molar value.
Tests used:
[1] = tested on: hepatitis C virus (HCV); test: HCV replication assay, luciferase in LucNeo#2 replicon cells; type: cell-based, HCV NN strain (genotype-1b); details: 10 μM Oxy210, 1 μM sofosbuvir, 48 h
Procedure: N, nucleus; M, mitochondria; *, double-membrane vesicle.
HCV replication activity was measured using LucNeo#2 cells, carrying a subgenomic replicon RNA for an HCV NN strain (genotype-1b) and the luciferase gene driven by the HCV replication. LucNeo#2 cells were treated with the compounds indicated in Figure 3C for 48 h, and the luciferase activity was measured with Luciferase Assay System kit (Promega, Madison, WI, USA).

[2] = tested on: SARS-CoV-2; test: SARS-CoV-2 infection assay, viral RNA in culture supernatant by real-time RT-PCR; type: cell-based, SARS-CoV-2 Wk-521 strain; details: 24 h post-inoculation; for IC90: Severe acute respiratory syndrome coronavirus 2, read-out: IC90 (90% maximal inhibitory concentration); for IC90 / pIC50: viral RNA in culture supernatant, VeroE6/TMPRSS2 cells; for pIC50: Severe acute respiratory syndrome coronavirus 2, read-out: IC50 (50% maximal inhibitory concentration); for reduction of the production of viral RNA as compared to control: natural oxysterols; for reduction of the production of viral RNA as compared to control / effect on viral RNA (in words): concentrations up to 30 μM
[3] = in vitro; details: African green monkey
[4] = tested on: SARS-CoV-2; test: Virus-induced cytopathic effect (CPE) viewed under a microscope; type: cell-based, SARS-CoV-2 Wk-521 strain; details: 48 h post-inoculation; 10 μM RDV, 30 μM cholesterol, 30 μM 7-KC, 10 μM Oxy133, 10 μM Oxy210
[5] = tested on: SARS-CoV-2; test: Viral N protein by indirect immunofluorescence; type: cell-based, SARS-CoV-2 Wk-521 strain; details: 10 μM RDV, 30 μM cholesterol, 30 μM 7-KC, 10 μM Oxy133, 10 μM Oxy210
[6] = tested on: VeroE6/TMPRSS2 cells; test: Cell viability by MTT assay; details: up to 15 μM
[7] = tested on: SARS-CoV-2; test: Time of addition assay (whole life cycle, entry, post-entry); type: cell-based, SARS-CoV-2 Wk-521 strain; details: 15 μM RDV, 10 μM Oxy210, 10 μM Oxy133; added 2 h post-inoculation for 21 h
[8] = Cell viability by MTT assay; details: African green monkey, VeroE6 cells stably overexpressing TMPRSS2

SMILES	HCV replication, luciferase activity (in words) [1]	IC90 [2] [µM]	pIC50 [2]	reduction of the production of viral RNA as compared to control [2]	CC50 [3] [µM]	effect on SARS-CoV-2-induced CPE (in words) [4]	effect on virus propagation / spread of infection, N protein (in words) [5]	maximum reduction in viral RNA as compared to control ([2]; 12 μM) [%]	effect on viral RNA level (in words) ([2]; semi-synthetic oxysterols, up to 15 μM)	cytotoxicity / cell viability (in words) [6]	effect on viral RNA (in words) [2]	viral RNA, compound present post-entry (in words) [7]	CC50 at 24 h [8] [µM]
CC(C)OC(=O)[C@H](C)N[P@](=O)(OC[C@H]1O[C@@H](n2ccc(=O)[nH]c2=O)[C@](C)(F)[C@@H]1O)Oc1ccccc1 [sofosbuvir, reference compound]	positive control	–	–	–	–	–	–	–	–	–	–	–	–
CC(C)[C@@H](O)CC[C@@H](C)[C@H]1CC[C@H]2[C@@H]3CC=C4C[C@@H](O)CC[C@]4(C)[C@H]3CC[C@]12C [24(S)-OHC, 24(S)-hydroxycholesterol]	–	> 30	5.89	80%–86%	> 30	–	–	–	–	–	–	–	–
CC(C)CCC[C@@H](C)[C@H]1CC[C@H]2[C@@H]3C(=O)C=C4C[C@@H](O)CC[C@]4(C)[C@H]3CC[C@]12C [7-KC, 7-ketocholesterol]	–	> 30	4.84	80%–86%	> 30	reduced the SARS-CoV-2-induced CPE	reduced	–	–	–	–	–	–
C[C@]12CC[C@H](O)C[C@@H]1CC[C@@H]1[C@@H]2CC[C@@]2(C)[C@H]1CC[C@@H]2[C@](C)(O)CCc1ccc(F)cc1 [Oxy186]	–	> 15	5.13	–	> 15	–	–	83	reduced viral RNA level in a dose-dependent manner	No significant cytotoxicity	–	–	–
CC(C)CCC[C@@H](C)[C@H]1CC[C@H]2[C@@H]3CC=C4C[C@@H](O)CC[C@]4(C)[C@H]3CC[C@]12C [Cholesterol, reference compound]	–	> 30	< 4.52	–	> 30	but not cholesterol, reduced the SARS-CoV-2-induced CPE	but not cholesterol, reduced	–	–	–	did not show apparent reductions in viral RNA	–	–
CC(C)CC[C@@H](O)[C@@H](C)[C@H]1CC[C@H]2[C@@H]3CC=C4C[C@@H](O)CC[C@]4(C)[C@H]3CC[C@]12C [22(R)-OHC, 22(R)-hydroxycholesterol]	–	> 30	4.88	80%–86%	> 30	–	–	–	–	–	–	–	–
CCC(CC)COC(=O)[C@H](C)N[P@](=O)(OC[C@H]1O[C@@](C#N)(c2ccc3c(N)ncnn23)[C@H](O)[C@@H]1O)Oc1ccccc1 [RDV, remdesivir, reference compound]	–	2.5	5.82	–	–	blocked the virus-induced CPE	blocked	–	–	–	–	remarkable inhibition	> 10
CC(C)CCC[C@@H](C)[C@H]1CC[C@H]2[C@@H]3CC=C4[C@@H](O)[C@@H](O)CC[C@]4(C)[C@H]3CC[C@]12C [4-beta-OHC, 4beta-hydroxycholesterol]	–	> 30	< 4.52	–	> 30	–	–	–	–	–	did not show apparent reductions in viral RNA	–	–

Source: article PMC8003796, “Identification of Anti-Severe Acute Respiratory Syndrome-Related Coronavirus 2 (SARS-CoV-2) Oxysterol Derivatives In Vitro” (International Journal of Molecular Sciences, 2021)
